pIC50: −log10 of the molar value. In brackets after ≈: the same amount, converted by molar mass. One block for each compound: values may come before it.
What was measured:
[1] = tested on: Escherichia coli; assay: Antibacterial activity against wild type Escherichia coli ATCC 25922 assessed as reduction in bacterial growth measured after 16 to 20 hrs by CLSI-based microbroth dilution method; assay type: functional, organism-based
[2] = tested on: Escherichia coli; assay: Antibacterial activity against wild type Escherichia coli assessed as reduction in microbial growth measured after 24 hrs by broth microdilution method
[3] = tested on: Escherichia coli; assay: as above; remark: listed apart in the source
[4] = tested on: Escherichia coli; assay: Antibacterial activity against wild type Escherichia coli assessed as reduction in bacterial growth inhibition incubated for 24 hrs by broth microdilution method; assay type: functional, organism-based
[5] = tested on: Pseudomonas aeruginosa; assay: Antibacterial activity against Pseudomonas aeruginosa ATCC 15442 assessed as bacterial growth inhibition measured after 18 hrs by CLSI protocol based two-fold serial microdilution method; assay type: functional
[6] = tested on: Escherichia coli; assay: Antibacterial activity against Escherichia coli assessed as reduction in bacterial growth incubated for 24 hrs by broth micro-dilution method; assay type: functional
[7] = tested on: Enterobacter cloacae; assay: Antibacterial activity against Enterobacter cloacae assessed as reduction in bacterial growth by broth microdilution method; assay type: functional
[8] = tested on: Klebsiella pneumoniae; assay: Antibacterial activity against Klebsiella pneumoniae assessed as reduction in bacterial growth by broth microdilution method; assay type: functional
[9] = tested on: Acinetobacter baumannii; assay: Antibacterial activity against Acinetobacter baumannii assessed as reduction in bacterial growth by broth microdilution method; assay type: functional
[10] = tested on: Acinetobacter baumannii; assay: Antibacterial activity against wild type Acinetobacter baumannii ATCC 17978 assessed as inhibition of microbial growth measured after 24 hrs by broth microdilution method; assay type: functional, organism-based; conditions: ATCC 17978, 24 h
[11] = target: T1, MexAB/OprM (Pseudomonas aeruginosa (strain ATCC 15692 / DSM 22644 / CIP 104116 / JCM14847 / LMG 12228 / 1C / PRS 101 / PAO1)) (UniProt P52477+P52002+Q51487); assay: Inhibition of Pseudomonas aeruginosa MexAB-OprM P delta 6 pore assessed as minimal potentiating concentration for 4 fold reduction Levofloxacin MIC; assay type: protein-complex assay
[12] = target: T1, MexAB/OprM (Pseudomonas aeruginosa (strain ATCC 15692 / DSM 22644 / CIP 104116 / JCM14847 / LMG 12228 / 1C / PRS 101 / PAO1)); assay: Inhibition of Pseudomonas aeruginosa MexAB-OprM P delta 6 pore assessed as minimal potentiating concentration for 4 fold reduction novobiocin MIC; assay type: protein-complex assay
[13] = target: T1, MexAB/OprM (Pseudomonas aeruginosa (strain ATCC 15692 / DSM 22644 / CIP 104116 / JCM14847 / LMG 12228 / 1C / PRS 101 / PAO1)); assay: Inhibition of Pseudomonas aeruginosa MexAB-OprM P delta 6 pore assessed as minimal potentiating concentration for 4 fold reduction ciprofloxacin MIC; assay type: protein-complex assay
[14] = target: T1, MexAB/OprM (Pseudomonas aeruginosa (strain ATCC 15692 / DSM 22644 / CIP 104116 / JCM14847 / LMG 12228 / 1C / PRS 101 / PAO1)); assay: Inhibition of Pseudomonas aeruginosa MexAB-OprM P delta 6 pore assessed as minimal potentiating concentration for 4 fold reduction cefotaxime MIC; assay type: protein-complex assay
[15] = target: T1, MexAB/OprM (Pseudomonas aeruginosa (strain ATCC 15692 / DSM 22644 / CIP 104116 / JCM14847 / LMG 12228 / 1C / PRS 101 / PAO1)); assay: Inhibition of Pseudomonas aeruginosa MexAB-OprM P delta 6 pore assessed as minimal potentiating concentration for 4 fold reduction carbenicillin MIC; assay type: protein-complex assay

Compound: O=C1O[C@@H](CO)CN1c1ccc(-c2ccc(CO)cc2)c(F)c1
- pIC50 [1]: 4.87

Compound: Nc1cccc(-c2ccc(N3C[C@H](CO)OC3=O)cc2F)n1
- pIC50 [2]: 4.23

Compound: C[n+]1ccc(-c2ccc(-c3ccc(N4C[C@H](CO)OC4=O)cc3F)cc2)cc1
- pIC50 [3]: 4.81

Compound: O=C1O[C@@H](CO)CN1c1ccc(-c2ccc(SC(F)(F)F)cc2)c(F)c1
- pIC50 [1]: 4.87

Compound: COC(=O)c1ccccc1-c1ccc(N2C[C@H](CO)OC2=O)cc1F
- pIC50 [4]: 4.64

- MIC [5]: > 32 µg/mL
- MIC [6]: > 32 µg/mL
- MIC [7]: > 32 µg/mL
- MIC [8]: > 32 µg/mL
- MIC [9]: > 32 µg/mL
Compound: Cc1c(CN(C)C(=O)/C=C/c2cnc3c(c2)CCC(=O)N3)oc2ccccc12 [AFN-1252]

Compound: C[n+]1ccccc1-c1ccc(-c2ccc(N3C[C@H](CO)OC3=O)cc2F)cc1
- pIC50 [3]: 4.81

Compound: CSCc1ccc(N2C[C@H](CO)OC2=O)cc1F
- pIC50 [2]: 4.23

Compound: COC(=O)c1cncc(-c2ccc(N3C[C@H](CO)OC3=O)cc2F)c1
- pIC50 [10]: 4.72

- MIC [5]: > 128 µg/mL
- MIC [6]: > 128 µg/mL
- MIC [8]: > 128 µg/mL
- MIC [9]: 64 µg/mL (≈ 155 µM)
Compound: Cc1c(CNC2CCCCC2)cc(-c2ccc(Cl)cc2)n1-c1ccc(Cl)cc1

- MIC [5]: 32 µg/mL (≈ 74.7 µM)
- MIC [6]: 8 µg/mL (≈ 18.7 µM)
- MIC [8]: 16 µg/mL (≈ 37.3 µM)
- MIC [9]: 16 µg/mL (≈ 37.3 µM)
Compound: Cc1c(CNC2CCC(N)CC2)cc(-c2ccc(Cl)cc2)n1-c1ccc(Cl)cc1 (configuration not stated)

Compound: CC(C)[n+]1ccc(-c2ccc(N3C[C@H](CO)OC3=O)cc2F)cc1
- pIC50 [1]: 4.87

Compound: O=C1O[C@@H](CO)CN1c1ccc(-c2cccc(CO)c2)c(F)c1
- pIC50 [1]: 4.87

- MEC [11]: 6.25 µM
- MEC [12]: 3.12 µM
- MEC [13]: 12.5 µM
- MEC [14]: 100 µM
- MEC [15]: 100 µM
Compound: O=C(/C=C/c1ccccc1Cl)Nc1ccc(C2=NCCN2)c(C2=NCCN2)c1

Compound: CC[n+]1ccc(-c2ccc(N3C[C@H](CO)OC3=O)cc2F)cc1
- pIC50 [3]: 4.81

Compound: CC(C)c1ccc(-c2ccc(N3C[C@H](CO)OC3=O)cc2F)c(C(C)C)c1
- pIC50 [4]: 4.64

Compound: O=C1O[C@@H](CO)CN1c1ccc(-c2cc[n+](Cc3ccccc3)cc2)c(F)c1
- pIC50 [3]: 4.81

- MIC [5]: > 64 µg/mL
- MIC [6]: 4 µg/mL (≈ 10.2 µM)
- MIC [7]: 8 µg/mL (≈ 20.5 µM)
- MIC [8]: 8 µg/mL (≈ 20.5 µM)
- MIC [9]: 4 µg/mL (≈ 10.2 µM)
Compound: Cc1c(CN(C)C(=O)/C=C/c2cnc3c(c2)CC(N)C(=O)N3)oc2ccccc12 (configuration not stated)

Compound: O=C1O[C@@H](CO)CN1c1ccc(-c2ccnc(N3CCCC3)c2)c(F)c1
- pIC50 [10]: 4.72

Compound: O=C1O[C@@H](CO)CN1c1ccc(-c2ccccc2OC(F)(F)F)c(F)c1
- pIC50 [4]: 4.64

Compound: O=C1O[C@@H](CO)CN1c1ccc(-c2ccc(-c3ccccn3)cc2)c(F)c1
- pIC50 [1]: 4.87

Compound: N/C(=N/O)c1ccc(-c2ccc(N3C[C@H](CO)OC3=O)cc2F)cc1
- pIC50 [1]: 4.87

Compound: O=C1O[C@@H](CO)CN1c1ccc(-c2cc(Cl)cc(Cl)c2)c(F)c1
- pIC50 [2]: 4.23

Compound: CC(O)c1ccc(OCc2ccc(N3C[C@H](CO)OC3=O)cc2F)cc1 (some centres not stated)
- pIC50 [2]: 4.23

- MIC [5]: 64 µg/mL (≈ 128 µM)
- MIC [6]: 8 µg/mL (≈ 16 µM)
- MIC [8]: 16 µg/mL (≈ 32 µM)
- MIC [9]: 8 µg/mL (≈ 16 µM)
Compound: Cc1c(CNCCCCCCCCNC(=N)N)cc(-c2ccc(Cl)cc2)n1-c1ccc(Cl)cc1

- MIC [5]: 16 µg/mL (≈ 49.2 µM)
- MIC [6]: 0.5 µg/mL (≈ 1.54 µM)
- MIC [7]: 0.5 µg/mL (≈ 1.54 µM)
- MIC [8]: 1 µg/mL (≈ 3.07 µM)
- MIC [9]: 2 µg/mL (≈ 6.15 µM)
Compound: Cc1cc(=O)n(C)c2c3c4c(cc12)c(C)cc(=O)n4C(CN)CO3 (configuration not stated)

Compound: CCC[n+]1ccc(-c2ccc(N3C[C@H](CO)OC3=O)cc2F)cc1
- pIC50 [3]: 4.81

- MEC [11]: > 100 µM
- MEC [12]: > 100 µM
- MEC [13]: > 100 µM
- MEC [14]: > 100 µM
- MEC [15]: > 100 µM
Compound: O=C(/C=C/c1ccccc1Cl)Nc1ccc(C2=NCCN2)cc1

Compound: O=Cc1ccc(-c2ccc(N3C[C@H](CO)OC3=O)cc2F)cc1
- pIC50 [1]: 4.87

Compound: O=C1O[C@@H](CO)CN1c1ccc(-c2ccccc2)c(F)c1
- pIC50 [1]: 4.87

Compound: COCc1ccc(N2C[C@H](CO)OC2=O)cc1F
- pIC50 [2]: 4.23

Compound: C[n+]1cccc(-c2ccc(-c3ccc(N4C[C@H](CO)OC4=O)cc3F)cc2)c1
- pIC50 [3]: 4.81

Compound: C[n+]1ccc2cc(-c3ccc(N4C[C@H](CO)OC4=O)cc3F)ccc2c1
- pIC50 [3]: 4.81

— ChEMBL document CHEMBL5532669, “Guiding the Way: Traditional Medicinal Chemistry Inspiration for Rational Gram-Negative Drug Design” (J Med Chem, 2024)
